Assay results from ChEMBL document CHEMBL5357036, “Latest developments in coumarin-based anticancer agents: mechanism of action and structure-activity relationship studies” (RSC Med Chem, 2024).
pIC50: −log10 of the molar value. In brackets after ≈: the same amount, converted by molar mass.

Assays:
[1] = system: HepG2; assay: Antiproliferative activity against human HepG2 cells assessed as reduction in cell viability measured after 48 hrs by MTT assay; format: functional, cell-based; conditions: HepG2, 48 h
[2] = system: MCF7; assay: Antiproliferative activity against human MCF7 cells assessed as reduction in cell viability measured after 48 hrs by MTT assay; format: functional, cell-based; conditions: MCF7, 48 h
[3] = system: SK-OV-3; assay: Anticancer activity against human SK-OV-3 cells assessed as reduction in cell viability incubated for 24 hrs by MTT assay; format: functional, cell-based; conditions: SK-OV-3, 24 h
[4] = system: MCF7; assay: Anticancer activity against human MCF7 cells assessed as inhibition of cell proliferation measured after 48 hrs by MTT assay; format: functional, cell-based; conditions: MCF7, 48 h
[5] = system: MCF7-DOX; assay: Antiproliferative activity against human MCF7-DOX cells assessed as reduction in cell viability incubated for 72 hrs by MTT assay; format: functional, cell-based
[6] = system: DU-145; assay: Anticancer activity against human DU-145 cells assessed as cell growth inhibition measured after 48 hrs by MTT assay; format: functional, cell-based; conditions: DU-145, 48 h
[7] = system: B16-F10; assay: Cytotoxicity against mouse B16F10 cells assessed as reduction in cell viability incubated for 48 hrs by MTT assay; format: functional, cell-based; conditions: B16-F10, 48 h
[8] = system: MT4; assay: Cytotoxicity against human MT4 cells assessed as inhibition of cell growth incubated for 72 hrs by MTT assay; format: functional
[9] = system: MDA-MB-231; assay: Cytotoxicity against human MDA-MB-231 cells assessed as inhibition of cell growth incubated for 72 hrs by MTT assay; format: functional
[10] = system: MCF7; assay: Cytotoxicity against human MCF7 cells assessed as inhibition of cell growth incubated for 72 hrs by MTT assay; format: functional
[11] = system: SMMC-7721; assay: Antiproliferative activity against human SMMC-7721 cells assessed as reduction in cell viability incubated for 48 hrs by MTT assay; format: functional, cell-based; conditions: SMMC-7721, 48 h
[12] = system: Bel-7402; assay: Antiproliferative activity against human Bel-7402 cells assessed as reduction in cell viability incubated for 48 hrs by MTT assay; format: functional, cell-based; conditions: Bel-7402, 48 h
[13] = system: MHCC97; assay: Antiproliferative activity against human MHCC97 cells assessed as inhibition of cell growth measured after 3 days by CellTiter-Glo assay; format: functional, cell-based; conditions: MHCC97, 72 h
[14] = system: Hep 3B2; assay: Antiproliferative activity against human Hep3B cells assessed as reduction in cell viability incubated for 48 hrs by MTT assay; format: functional, cell-based
[15] = system: MCF7; assay: Anticancer activity against human MCF7 cells after 48 hrs by SRB assay; format: functional, cell-based; conditions: MCF7, 48 h
[16] = system: HCT-116; assay: Cytotoxicity against human HCT-116 cells assessed as reduction in cell growth measured after 48 hrs by MTT assay; format: functional, cell-based; conditions: HCT-116, 48 h
[17] = system: MCF7; assay: Cytotoxicity against human MCF7 cells assessed as inhibition of cell growth by resazurin microplate assay; format: functional, cell-based
[18] = system: MCF7; assay: Cytotoxicity against human MCF7 cells assessed as cell growth inhibition after 48 hrs by MTT assay; format: functional, cell-based; conditions: MCF7, 48 h
[19] = system: MDA-MB-231; assay: Antiproliferative activity against human MDA-MB-231 cells assessed as reduction in cell proliferation incubated for 72 hrs by CellTiter-Glo reagent based assay; format: functional; conditions: MDA-MB-231, 72 h
[20] = Antiproliferative activity against human H357 cells assessed as reduction in cell proliferation incubated for 72 hrs by CellTiter-Glo reagent based assay; format: functional; conditions: H357, 72 h
[21] = system: HL-60; assay: Antiproliferative activity against human HL-60 cells assessed as cell growth inhibition measured after 72 hrs by trypan blue staining based assay; format: functional; conditions: HL-60, 72 h
[22] = system: KE-37; assay: Anticancer activity against human KE-37 cells assessed as reduction in cell viability; format: functional, cell-based
[23] = system: K562; assay: Antiproliferative activity against human K562 cells assessed as cell growth inhibition; format: functional, cell-based
[24] = system: MDA-MB-231; assay: Antiproliferative activity against human MDA-MB-231 cells assessed as cell growth inhibition by SRB assay; format: functional, cell-based
[25] = system: HeLa; assay: Anticancer activity against human HeLa cells assessed as inhibition of cell growth by SRB assay; format: functional, cell-based
[26] = system: MCF7; assay: Anticancer activity against human MCF7 cells assessed as inhibition of cell growth incubated for 48 hrs by MTT assay; format: functional, cell-based; conditions: MCF7, 48 h
[27] = system: A-375; assay: Anticancer activity against human A-375 cells assessed as inhibition of cell growth incubated for 48 hrs by MTT assay; format: functional, cell-based; conditions: A-375, 48 h
[28] = system: A549; assay: Anticancer activity against human A549 cells assessed as inhibition of cell growth incubated for 48 hrs by MTT assay; format: functional, cell-based; conditions: A549, 48 h
[29] = system: C6; assay: Antiproliferative activity against rat C6 cells assessed as inhibition of cell growth; format: functional, cell-based
[30] = system: MCF7; assay: Cytotoxicity against human MCF7 cells assessed as reduction in cell growth incubated for 5 days by MTT assay; format: functional, cell-based; conditions: MCF7, 120 h
[31] = Cytotoxicity against human HEK cells assessed as reduction in cell growth incubated for 5 days by MTT assay; format: functional, cell-based; conditions: HEK293, 120 h
[32] = system: Ehrlich; assay: Cytotoxicity against mouse EAC cell assessed as reduction in cell viability by MTT assay; format: functional, cell-based
[33] = Cytotoxicity against mouse DLA cell assessed as reduction in cell viability by trypan blue assay; format: functional, cell-based
[34] = Cytotoxicity against mouse DLA cell assessed as reduction in cell viability by LDH leak assay; format: functional, cell-based
[35] = system: HepG2; assay: Cytotoxicity against human HepG2 cells assessed as growth inhibition measured after 48 hrs by MTT assay; format: functional, cell-based; conditions: HepG2, 48 h

Question: With `N#Cc1c(NN)nc(SCc2cc(=O)oc3ccccc23)nc1-c1ccccc1` as the compound, how does the pIC50 [1] read?
Answer: 5.26

Question: What about the IC50 [2] of the same compound?
Answer: 6.9 µg/mL (≈ 17.2 µM)

Question: With `Cc1cc(=O)oc2cc(OCCOCCOCCOCN3C(=O)/C(=N/O)c4cc(F)ccc43)ccc12` as the compound, how does the pIC50 [3] read?
Answer: 4.62

Question: What about the pIC50 [4] of the same compound?
Answer: 4.92

Question: What about the pIC50 [5] of the same compound?
Answer: 4.72

Question: What does the source list for `O=c1oc2ccccc2c2c1nc(-c1ccc(C(F)(F)F)cc1)c1occc12`?
Answer: pIC50 [6]: 4.68; pIC50 [7]: 4.89

Question: For `CC(=O)c1cc2cc(Nc3c(C)cc(C)c(-c4cc5ccccc5nc4F)c3C)c(=O)oc2cc1O`, which GI50 [8] is on record?
Answer: 12.6 µM

Question: What about the GI50 [9] of the same compound?
Answer: 11.8 µM

Question: And the GI50 [10]?
Answer: 10.5 µM

Question: What does the source list for `O=c1oc2ccccc2c(O)c1C(c1cccc(Oc2ccccc2)c1)c1c(O)c2ccccc2oc1=O`?
Answer: pIC50 [11]: 5.22; pIC50 [12]: 5.10; pIC50 [13]: 5.15; pIC50 [14]: 5.05

Question: With `COc1ccc2nc(SCc3cc(=O)oc4ccc(C(C)(C)C)cc34)[nH]c2c1` as the compound, how does the pIC50 [15] read?
Answer: 6.74

Question: With `COc1ccc(-c2cc(-c3cc4ccccc4oc3=O)nc(N)c2C#N)cc1` as the compound, how does the pIC50 [16] read?
Answer: 5.00

Question: And the pIC50 [17]?
Answer: 4.85

Question: With `COc1ccc(-c2cc(-c3cc4ccccc4oc3=O)nc(Cc3ccc(F)cc3)n2)cc1` as the compound, how does the pIC50 [18] read?
Answer: 5.65

Question: With `C/C(=N\c1ccc(S(N)(=O)=O)cc1)c1cc2ccccc2oc1=O` as the compound, how does the pIC50 [19] read?
Answer: 5.11

Question: And the pIC50 [20]?
Answer: 5.06

Question: What does the source list for `O=C(N/N=C/c1c(Cl)c2ccccc2oc1=O)c1ccccc1`?
Answer: pIC50 [21]: 5.54; pIC50 [22]: 5.28; pIC50 [23]: 5.14; pIC50 [24]: 5.04

Question: With `Cc1cc(=O)oc2cc(OCCOCCN3C(=O)C(=O)c4cc(F)ccc43)ccc12` as the compound, how does the pIC50 [25] read?
Answer: 4.94

Question: What does the source list for `Cc1ccc(NCc2cc(=O)oc3ccc4ccccc4c23)cc1`?
Answer: pIC50 [26]: 5.29; pIC50 [27]: 5.04; pIC50 [28]: 5.37

Question: With `Cc1cn(Cc2cc(=O)oc3ccc(Cl)cc23)c(=O)n(Cc2cc(=O)oc3ccc(Cl)cc23)c1=O` as the compound, how does the pIC50 [29] read?
Answer: 5.31

Question: With `CC(c1cc2ccccc2oc1=O)(c1c[nH]c2ccc(Br)cc12)c1c[nH]c2ccc(Br)cc12` as the compound, how does the pIC50 [30] read?
Answer: 4.67

Question: What about the pIC50 [31] of the same compound?
Answer: < 4.30

Question: With `COc1ccc(-c2csc(NC(=O)c3cc4ccc(OC)cc4oc3=O)n2)cc1` as the compound, how does the pIC50 [32] read?
Answer: 4.82

Question: What about the pIC50 [33] of the same compound?
Answer: 4.81

Question: And the pIC50 [34]?
Answer: 4.85

Question: With `CCCCOc1ccc2cc(C(=O)NNC(=O)c3c(C)oc4nc(N(CCC)CCC)n(-c5ccc(C)cc5)c(=O)c34)c(=O)oc2c1` as the compound, how does the pIC50 [35] read?
Answer: 5.31
